Data reported in patent US11753432B2, “Compound with analgesic effect for use in prevention and treatment of pain” (Academia Sinica, priority 2017, dated 2023).
Each block holds one molecule with its values, some of them ahead of it.

How the values were obtained:
[1] = tested on: mouse model of fibromyalgia (chronic widespread pain induced by intermittent cold stress); assay: Intermittent cold stress (ICS) mouse model of fibromyalgia; mechanical hyperalgesia, hindpaw withdrawal to 0.2-mN von Frey filament; assay type: in vivo, mice (female C57BL/6JNarl); details: for tolerance / therapeutic effect on repeated treatment: 1 mg/kg p.o. once a day for 4 days from day 5 after ICS
Protocol: Female C57BL/6JNarl mice aged 8-12 weeks were purchased from the National Laboratory Animal Center (Taipei, Taiwan). The fibromyalgia model was developed by Ueda's group, in which mice were treated with intermittent cold stress for 2 days (Nishiyori, M.; Ueda, H. Prolonged gabapentin analgesia in an experimental mouse model of fibromyalgia. Mol. Pain 2008, 4, 52). Mice treated with intermittent cold stress developed long-lasting (>2 weeks) mechanical and thermal hyperalgesia. Analgesic effects of compound I-a1 (JMF3737) via i.p. (in 0.5% HPβCD) or p.o. (in 1% HPβCD) routes and compound I-d1 (JMF4413) via i.p. (in 0.5% HPβCD) were tested in these mice 5 days after intermittent cold stress. Mechanical hyperalgesia was assayed by testing the withdrawal response of mouse hindpaws to 0.2-mN von Frey filament stimulation.

[2] = Tolerated dose / safety range in the ICS mouse model; assay type: in vivo
Protocol: Female C57BL/6JNarl mice aged 8-12 weeks were purchased from the National Laboratory Animal Center (Taipei, Taiwan). […] Mechanical hyperalgesia was assayed by testing the withdrawal response of mouse hindpaws to 0.2-mN von Frey filament stimulation.

[3] = target: T1, NK1R receptor in muscle nociceptors (Mus musculus, UniProt P30548); assay: Whole-cell patch clamp recording on muscle nociceptors (outward current); assay type: cell-based
T1 construct: whole-cell patch clamp recording on muscle nociceptors; endogenous in cells; host or cells: muscle nociceptors (primary sensory neurons; preparation not described)
Description: The JMF3737-induced outward current (IJMF3737) can cause nociceptor hyperpolarization and thus counteract the acid-induced depolarization in muscle nociceptors and thus inhibit pain associated with tissue acidosis.

Bioavailability = details: in vivo; read-out: bioavailability (F)
Solubility = assay type: physicochemical
[4] = p.o. (oral gavage), ICS mouse model

T1 sequence (P30548 whole entry): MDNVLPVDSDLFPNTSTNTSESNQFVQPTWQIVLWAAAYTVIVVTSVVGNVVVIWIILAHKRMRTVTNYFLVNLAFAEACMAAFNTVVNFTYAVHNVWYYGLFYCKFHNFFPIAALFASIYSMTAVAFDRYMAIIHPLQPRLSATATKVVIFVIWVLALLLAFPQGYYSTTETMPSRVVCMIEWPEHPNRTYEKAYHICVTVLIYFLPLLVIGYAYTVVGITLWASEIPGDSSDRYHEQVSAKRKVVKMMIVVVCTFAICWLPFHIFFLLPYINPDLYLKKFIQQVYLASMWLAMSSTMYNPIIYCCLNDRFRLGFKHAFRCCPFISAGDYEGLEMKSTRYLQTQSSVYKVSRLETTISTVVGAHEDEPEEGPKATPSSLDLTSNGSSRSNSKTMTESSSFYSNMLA

Compound: O=C(O)CNC(=O)NC[C@H]1O[C@@H](n2cnc3c(NCc4ccc(O)cc4)ncnc32)C(O)C1O (stereo partly drawn) [I-d1, 5′-Deoxy-5′-(glycine-N-amido)-N^6-(4-hydroxybenzyl)adenosine]
analgesic effect (in words) ([1]; 64 mg/kg via i.p. route, n=2): good analgesic effect | analgesic effect (in words) ([1]; ICS mouse model): excellent analgesic effect | dose without causing appreciable detrimental effect ([2]; i.p.): 64 mg/kg

Compound: O=C(O)CNC(=O)OC[C@H]1O[C@@H](n2cnc3c(NCc4ccc(O)cc4)ncnc32)C(O)C1O (stereo partly drawn) [I-a1, 5′-O-(Glycine-N-carbonyl)-N^6-(4-hydroxybenzyl)adenosine]
pain sensitivity to von Frey filament stimulation after repeated treatment ([1]; 1 mg/kg oral once a day for 4 days, since day 8, n=4): decreased pain sensitivity | acute analgesic effect during repeated treatment ([1]; 1 mg/kg oral once a day, day 5 to day 8, n=4): shows acute analgesic effect | tolerance / therapeutic effect on repeated treatment [1]: no tolerance but therapeutic effect | tolerance / therapeutic effect on repeated treatment ([1]; listed as JMF3737): does not cause tolerance | analgesic effect (in words) ([1]; 2 mg (4 μmol)/kg via oral route): appreciable analgesic effect | analgesic effect (in words) ([1]; ICS mouse model): superior analgesic effect to that of T1-11 | dose-dependent analgesic effect, effective dose starting from ([1]; i.p., ICS mouse model): 1 mg/kg | dose-dependent analgesic effect, effective dose starting from [1, 4]: 1 mg/kg | analgesic effect compared with T1-11 ([1]; via oral route): better analgesic effect over T1-11 | induced outward current (IJMF3737) inhibited by NK1R antagonist ([3]; JMF3737 10 μM with RP67580 10 μM, reversible inhibition): 15 pA | induced outward current (IJMF3737) ([3]; JMF3737 10 μM, muscle nociceptors): 40 pA | dose without causing appreciable detrimental effect ([2]; i.p. and p.o.): at least 64 mg/kg

melting point: 187.4 to 189 °C
Compound: CCCCNC(=O)OC[C@H]1O[C@@H](n2cnc3c(NCc4ccc(O)cc4)ncnc32)C(O)C1O (stereo partly drawn) [Compound 8, 5′-O-(n-Butylaminocarbonyl)-N^6-(4-hydroxybenzyl)adenosine]

bioavailability (Bioavailability): ~5% | solubility in dimethylsulfoxide (DMSO) (Solubility): good solubility
Compound: OC[C@H]1O[C@@H](n2cnc3c(NCc4ccc(O)cc4)ncnc32)[C@H](O)[C@@H]1O [T1-11, N^6-(4-hydroxybenzyl)adenosine, reference compound]
analgesic effect (in words) ([1]; ICS mouse model): excellent analgesic effect | dose-dependent analgesic effect, effective dose starting from ([1]; i.p., ICS mouse model): 0.03 mg/kg | dose-dependent analgesic effect, effective dose starting from [1, 4]: 8 mg/kg
